# Results from US20100303793A1, “COMBINATION THERAPY FOR CARDIAC REVASCULARIZATION AND CARDIAC REPAIR” (The Board of Regents, The University of Texas Syst, priority 2007, published 2010).
# Experiments:
# [1] = tested on: Human coronary artery endothelial (HCAE) cells; assay: Invasion of HCAE cells through Matrigel toward bFGF; format: cell-based; details: bFGF 10 ng/ml, 22 h
# Procedure: (§1) The design of experiments to measure invasion and migration of endothelial cells toward the angiogenic factor bFGF (basic fibroblast growth factor) is shown in FIGS. 5A and 6A, respectively. The standard assay used 5×10^4 cells added to the top of the insert in 250 μl of medium. The lower portion of the apparatus contained 750 μl of medium, plus or minus bFGF. […] Transmembrane cell invasion and migration assays were performed using BD FluoroBlok (BD Bioscience, Bedford, Mass.) inserts coated with BD Matrigel Matrix (a biologically active basement membrane preparation) or with fibronectin, respectively. […] (R&D System, Minneapolis, Minn.) (FGF) or medium alone (CTR) were added to the lower chamber of the insert plate as a chemoattractant. The cells were allowed to invade or migrate for 22 hours. Cells were labeled post invasion or post migration with Calcein AM (4 μg/ml) and the fluorescence of the cells that invaded through the BD Matrigel Matrix or migrated to the underside of the insert membrane was measured using a plate reader at 485 nm (excitation) and 530 nm (emission).
# [2] = tested on: Human coronary artery endothelial (HCAE) cells; assay: Migration of HCAE cells through fibronectin-coated insert toward bFGF; format: cell-based; details: bFGF 10 ng/ml, 22 h
# Procedure: as §1
# AC-23 = assay: Binding of biotin-conjugated thrombin to complementary peptide AC-23
# AC-23, sequence (as listed by the source): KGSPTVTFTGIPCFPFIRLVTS
# 23C53 = assay: Binding of biotin-conjugated thrombin to complementary peptide 23C53
# 23C53, sequence (as listed by the source): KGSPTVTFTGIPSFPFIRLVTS
# [3] = tested on: Human coronary artery endothelial (HCAE) cells; assay: Invasion of HCAE cells through Matrigel toward PDGF; format: cell-based; details: PDGF 10 ng/ml, 22 h
# Procedure: (§2) The design of experiments to measure invasion and migration of endothelial cells toward the angiogenic factor PDGF (platelet-derived growth factor-BB) is shown in FIGS. 7A and 8A respectively. The standard assay used 5×10^4 cells added to the top of the insert in […] of medium. The lower portion of the apparatus contained 750 μl of medium, plus or minus PDGF. […] Transmembrane cell invasion and migration assays were performed using BD FluoroBlok inserts coated with BD Matrigel Matrix (a biologically active basement membrane preparation) or with fibronectin (BD Bioscience, Bedford, Mass.), respectively. […] PDGF [10 ng/ml] (R&D System, Minneapolis, Minn. (PDGF) or medium alone (CTR) were added to the lower chamber of the insert plate as a chemoattractant. The cells were allowed to invade or migrate for 22 hours. Cells were labeled post invasion or post migration with Calcein AM (4 μg/ml) and the fluorescence of the cells that invaded through the BD Matrigel Matrix or migrated to the underside of the insert membrane was measured using a plate reader at 485 nm (excitation) and 530 nm (emission).
# [4] = tested on: Human coronary artery endothelial (HCAE) cells; assay: Migration of HCAE cells through fibronectin-coated insert toward PDGF; format: cell-based; details: PDGF 10 ng/ml, 22 h
# Procedure: as §2
molecule,measurement,setting,value
"bFGF: basic fibroblast growth factor, angiogenic factor (R&D System)","bFGF-induced endothelial cell invasion, % of invasion with control medium (CTR)",[1],~170%
same,Increase of endothelial cell migration by bFGF compared to control medium not containing bFGF,[2],~40%
thrombin,Specific binding of biotin-conjugated thrombin to AC23,AC-23,bind specifically
same,Specific binding of biotin-conjugated thrombin to 23C53,23C53,bind specifically
"PDGF: platelet-derived growth factor-BB, angiogenic factor (R&D System) (protein, UniProt P01127 82-190, looked up) Platelet-derived growth …: SLGSLTIAEPAMIAECKTRTEVFEISRRLIDRTNANFLVWPPCVEVQRCSGCCNNRNVQCRPTQVQLRPVQVRKIEIVRKKPIFKKATVTLEDHLACKCETVAAARPVT",Effect of PDGF on endothelial cell invasion compared to control medium without PDGF,[3],no effect
same,Effect of PDGF on endothelial cell migration compared to control (CTR),[4],no effect
